The nature of series [1]: Infrared-triggered release of ibuprofen from P(BMA-MMA) disc in physiological buffer. The class given is physicochemical. Conditions: physiological buffer at 30° C.; for speed of release of ibuprofen from the disc: P(BMA-MMA) disc, 290 ppm Lumogen IR 788, 5 wt % ibuprofen. The method, then:
An object consisting of a pressed circular disc with a diameter of 2.5 cm and thickness of 2 mm was placed in a holder in a vessel completely containing 90 mL physiological buffer at 30° C. […] Addition of ibuprofen led to a lowering of the Tg to about 35° C. The disc was irradiated perpendicularly to the surface with the same laser diode module as in Example 1a, the laser power being 750 mW and the distance between fiber exit and disc 50 mm. The water layer between sample and disc was approximately 20 mm. A glass lid was placed on the vessel to prevent water evaporation. The vessel was completely filled with water, thus avoiding reflection and refraction effects at an additional air/water interface. The near-infrared irradiation only encountered an air to glass and a glass to water transition. Irradiation was applied in an alternating manner, periods of irradiation of 4 hours being alternated by periods of 20 hours without irradiation.

Series [2] is described as follows: Ibuprofen blood plasma concentration after infrared triggering of subcutaneous strand in rat. Conditions: sc; for concentration at 1 day: first time; for concentration at 2 day: second time (next day). The class given is in vivo. The method, then:
An object consisting of a compounded strand with a diameter of 2.0 mm and a length of 2.0 cm. […] Addition of ibuprofen led to a lowering of the Tg to about −1° C.
The strand was placed subcutaneously in a rat. After 1 day, the strand was irradiated perpendicularly to the length axis with the same laser diode module as in Example 1a, for 15 minutes, the laser power set at 750 mW and the distance between fiber exit and the skin of the rat being 20 mm. The next day this procedure was repeated again.
Blood samples were taken before, during and after triggering on both days. As a consequence of irradiation, the concentration of ibuprofen in the blood plasma increased the first time from below 5 ng/ml (no detection peak of LC-MS/MS was found) to 25 ng/ml and the second time from below 5 ng/ml (no peak was found) to 19 ng/ml.

Where [3] appears, read: subcutaneous strand with 40 wt % ibuprofen, as a consequence of 15 minutes irradiation at 750 mW.

Molecules are shown by their SMILES.

As for `CC(C)Cc1ccc(C(C)C(=O)O)cc1` (stereo not shown) [ibuprofen], the “release of ibuprofen after stopping irradiation” value in series [1] (after stopping irradiation, same disc) was “fell virtually immediately to the base value”. For the same compound, the “speed of release of ibuprofen from the disc” value in series [1] (during irradiation (785 nm laser, 750 mW, 4 hours periods)) is on record as “around 3.9×10^−6 g/h”; in series [1] (without irradiation (base value)), “less than 1×10^−6 g/h”. For the same compound, the concentration at 1 day in series [2] (subcutaneous poly(L,DL-Lactide) strand with 40 wt % ibuprofen, before irradiation, LC-MS/MS) is under 5 ng/mL; in series [2] (setting [3]) it was 25 ng/mL. The concentration at 2 day in series [2] (setting [3]) was 19 ng/mL; in series [2] (subcutaneous strand with 40 wt % ibuprofen, before irradiation, LC-MS/MS) it was under 5 ng/mL.

For the origin of these results see patent publication US20100003326A1, “DRUG DELIVERY DEVICE COMPRISING A PHARMACEUTICALLY OR BIOLOGICALLY ACTIVE COMPONENT AND AN INFRARED ABSORBING COMPOUND” (DOLPHYS TECHNOLOGIES B.V., priority 2006, published 2010).
